# Results: PubChem BioAssay (NCI)
#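 All cell lines were grown in 96-well plates and treated with compound for 48 hours. GI50: concentration for 50% inhibition of growth. TGI denotes the concentration required for complete inhibition of growth.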
# Tests used:
# Assay in all cases: inhibition of tumour cell growth, NCI panel, 48 h
# 786-0 renal = system: 786-0 renal
# HCT-15 colon = system: HCT-15 colon
# HOP-92 NSCLC = system: HOP-92 NSCLC
# HT29 colon = system: HT29 colon
# IGROV1 ovarian = system: IGROV1 ovarian
# MALME-3M melanoma = system: MALME-3M melanoma
# SF-268 CNS = system: SF-268 CNS
# SK-MEL-2 melanoma = system: SK-MEL-2 melanoma
# SN12C renal = system: SN12C renal
# SNB-19 CNS = system: SNB-19 CNS
Compound,GI50 (786-0 renal),TGI (786-0 renal),GI50 (HCT-15 colon),TGI (HCT-15 colon),GI50 (HOP-92 NSCLC),TGI (HOP-92 NSCLC),GI50 (HT29 colon),TGI (HT29 colon),GI50 (IGROV1 ovarian),TGI (IGROV1 ovarian),GI50 (MALME-3M melanoma),TGI (MALME-3M melanoma),GI50 (SF-268 CNS),TGI (SF-268 CNS),GI50 (SK-MEL-2 melanoma),TGI (SK-MEL-2 melanoma),GI50 (SN12C renal),TGI (SN12C renal),GI50 (SNB-19 CNS),TGI (SNB-19 CNS)
CSC1=Nc2c(c(C)c(-c3ccccc3)n2CCCCl)C2=NC(=O)CN12,8.57 µM,61.7 µM,4.11 µM,21.4 µM,11.5 µM,37 µM,3.85 µM,19.5 µM,3.59 µM,21.1 µM,8.38 µM,23.5 µM,8.57 µM,47.6 µM,10.4 µM,27.6 µM,6.28 µM,39 µM,3.97 µM,17.8 µM
c1ccc(CCCC2Sc3cccc4cccc(c34)S2)cc1,,> 100 µM,,> 100 µM,,> 100 µM,,> 100 µM,,> 100 µM,,> 100 µM,,> 100 µM,,> 100 µM,,> 100 µM,,> 100 µM
C=CC(=O)NCCOc1cccc(Nc2cc(NCCCNC(=O)C3CCC3)c(Br)cn2)c1,0.989 µM,> 25 µM,1.38 µM,23.3 µM,0.826 µM,> 25 µM,0.548 µM,2.84 µM,0.963 µM,12.9 µM,1.46 µM,6.43 µM,0.482 µM,3.73 µM,2.62 µM,6.55 µM,0.623 µM,> 25 µM,1.08 µM,14 µM
[C-]#[O+].[C-]#[O+].[Ir].[O-]c1ccc2ccccc2c1N=Nc1ccccc1,3.39 µM,12.2 µM,,19.8 µM,,32.4 µM,,20.6 µM,,37.1 µM,,13 µM,22.7 µM,61.5 µM,,49.1 µM,,23.9 µM,,> 70.7 µM
C/C(=C1/N=C(c2ccccc2)OC1=O)c1ccc(C)cc1,,> 100 µM,,> 100 µM,,> 100 µM,,> 100 µM,,> 100 µM,,> 100 µM,,> 100 µM,,> 100 µM,,> 100 µM,,> 100 µM
Fc1c[c-]c(-c2ccccn2)c(F)c1.[CH3-].[Pt+2].c1ccc([PH+](c2ccccc2)c2ccccn2)cc1,1.93 µM,4.03 µM,1.44 µM,3.59 µM,1.18 µM,2.68 µM,2.44 µM,> 100 µM,1.71 µM,5.02 µM,1.35 µM,2.81 µM,1.89 µM,5.18 µM,2.22 µM,5.86 µM,1.51 µM,4.24 µM,3.25 µM,> 100 µM
CCCCCCCCCCCCOC1C(CNCC2OC3OC(C)(C)OC3C2NC(=O)Nc2ccc(C(F)(F)F)cc2)OC2OC(C)(C)OC21 (configuration not stated),7.62 µM,14.4 µM,7.47 µM,15 µM,7.4 µM,14.4 µM,3.14 µM,7.07 µM,6.77 µM,15.6 µM,3.39 µM,13.7 µM,7.93 µM,16.6 µM,9.09 µM,19.3 µM,7.04 µM,15.3 µM,9.07 µM,18 µM
COc1ccc2c(O)c(/C=C3\N=Nc4ncccc43)oc2c1C[C@H]1CCNC[C@H]1F,0.241 µM,1.61 µM,0.507 µM,12.2 µM,2.39 µM,11.3 µM,0.411 µM,6.93 µM,0.353 µM,5.06 µM,1.61 µM,5.15 µM,0.296 µM,10.4 µM,1.1 µM,3.73 µM,0.442 µM,10.6 µM,0.419 µM,11.6 µM
CCOC(=O)C12CCSC1C1(C#N)C(C#N)=CC2(N=P(c2ccccc2)(c2ccccc2)c2ccccc2)n2c(=O)n(-c3ccccc3)c(=O)n21 (configuration not stated),,> 100 µM,,> 100 µM,,60.9 µM,,> 100 µM,,> 100 µM,,> 100 µM,,> 100 µM,,> 100 µM,,> 100 µM,,> 100 µM
COc1cc(/C=C/C(=O)NC[C@]2(O)CCC3C4CCc5cc(O)ccc5C4CCC32C)ccc1O (some centres not stated),11.3 µM,45.7 µM,7.41 µM,> 100 µM,21.8 µM,> 100 µM,3.68 µM,28.6 µM,10.9 µM,62.7 µM,3.5 µM,42.3 µM,96.1 µM,> 100 µM,38.8 µM,> 100 µM,25.4 µM,> 100 µM,49 µM,> 100 µM
